# Tested on: 817829-284-R-J1-PDC complex spheroids, viability
# Test: Anticancer human tumor 817829-284-R-J1-PDC patient-derived colon adenocarcinoma cell line growth inhibition [GQUAD]
# Settings: for IC50: curve of first compound; for viability, T/C: stronger effect = lower value
# Outline: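 Viability of tumor cells grown as complex spheroids with endothelial and stromal cells, exposed to drug combinations. Top concentration at or near clinical Cmax (else 10 microM), diluted in half-log increments.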
# [1] = second compound 0.0316 µM, first compound 0.0316 µM
# [2] = second compound 0.0316 µM, first compound 0.1 µM
# [3] = second compound 0.0316 µM, first compound 0.316 µM
# [4] = second compound 0.0316 µM, first compound 1 µM
# [5] = second compound 0.0316 µM, first compound 3.16 µM
# [6] = second compound 0.0316 µM, first compound 10 µM
# [7] = second compound 0.1 µM, first compound 0.0316 µM
# [8] = second compound 0.1 µM, first compound 0.1 µM
# [9] = second compound 0.1 µM, first compound 0.316 µM
# [10] = second compound 0.1 µM, first compound 1 µM
# [11] = second compound 0.1 µM, first compound 3.16 µM
# [12] = second compound 0.1 µM, first compound 10 µM
# [13] = second compound 0.316 µM, first compound 0.0316 µM
# [14] = second compound 0.316 µM, first compound 0.1 µM
# [15] = second compound 0.316 µM, first compound 0.316 µM
# [16] = second compound 0.316 µM, first compound 1 µM
# [17] = second compound 0.316 µM, first compound 3.16 µM
# [18] = second compound 0.316 µM, first compound 10 µM
# [19] = second compound 1 µM, first compound 0.0316 µM
# [20] = second compound 1 µM, first compound 0.1 µM
# [21] = second compound 1 µM, first compound 0.316 µM
# [22] = second compound 1 µM, first compound 1 µM
# [23] = second compound 1 µM, first compound 3.16 µM
# [24] = second compound 1 µM, first compound 10 µM
# [25] = second compound 3.16 µM, first compound 0.0316 µM
# [26] = second compound 3.16 µM, first compound 0.1 µM
# [27] = second compound 3.16 µM, first compound 0.316 µM
# [28] = second compound 3.16 µM, first compound 1 µM
# [29] = second compound 3.16 µM, first compound 3.16 µM
# [30] = second compound 3.16 µM, first compound 10 µM
# [31] = second compound 10 µM, first compound 0.0316 µM
# [32] = second compound 10 µM, first compound 0.1 µM
# [33] = second compound 10 µM, first compound 0.316 µM
# [34] = second compound 10 µM, first compound 1 µM
# [35] = second compound 10 µM, first compound 3.16 µM
# [36] = second compound 10 µM, first compound 10 µM
# 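Also: spheroids exposed to agents for 7 days before readout.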
# 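For viability, T/C in this document: percent viability relative to DMSO vehicle control taken as 100%.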
smiles,measurement,setting,value
C#Cc1c(F)ccc2cc(O)cc(-c3ncc4c(N5CC6CCC(C5)N6)nc(OCC56CCCN5CC(F)C6)nc4c3F)c12 (stereo not drawn) + Cc1cnc(CNC(=O)c2c(=O)c3ccc(N4CCCN(C)CC4)nc3n3c2sc2ccccc23)cn1,IC50,second compound 0.0316 µM,> 10000 nM
same,IC50,second compound 0.1 µM,< 31.6 nM
same,IC50,second compound 0.316 µM,< 31.6 nM
same,IC50,second compound 1 µM,< 31.6 nM
same,IC50,second compound 3.16 µM,< 31.6 nM
same,IC50,second compound 10 µM,< 31.6 nM
same,"viability, T/C",[1],82.9%
same,"viability, T/C",[2],72.5%
same,"viability, T/C",[3],84.7%
same,"viability, T/C",[4],61%
same,"viability, T/C",[5],91.2%
same,"viability, T/C",[6],89.8%
same,"viability, T/C",[7],30.7%
same,"viability, T/C",[8],35.5%
same,"viability, T/C",[9],32.8%
same,"viability, T/C",[10],36.2%
same,"viability, T/C",[11],33.9%
same,"viability, T/C",[12],35.9%
same,"viability, T/C",[13],22.9%
same,"viability, T/C",[14],28.6%
same,"viability, T/C",[15],24.8%
same,"viability, T/C",[16],24.1%
same,"viability, T/C",[17],29.4%
same,"viability, T/C",[18],27%
same,"viability, T/C",[19],17.9%
same,"viability, T/C",[20],23.4%
same,"viability, T/C",[21],20.6%
same,"viability, T/C",[22],21.8%
same,"viability, T/C",[23],23%
same,"viability, T/C",[24],19.8%
same,"viability, T/C",[25],17%
same,"viability, T/C",[26],20.1%
same,"viability, T/C",[27],18.8%
same,"viability, T/C",[28],17.3%
same,"viability, T/C",[29],22.7%
same,"viability, T/C",[30],20.5%
same,"viability, T/C",[31],0.13%
same,"viability, T/C",[32],0.18%
same,"viability, T/C",[33],0.19%
same,"viability, T/C",[34],0.15%
same,"viability, T/C",[35],0.18%
same,"viability, T/C",[36],0.16%
COc1cc(C2c3cc4c(cc3C(OC3OC5COC(C)OC5C(O)C3O)C3COC(=O)C23)OCO4)cc(OC)c1O (stereo not drawn) + Cc1cnc(CNC(=O)c2c(=O)c3ccc(N4CCCN(C)CC4)nc3n3c2sc2ccccc23)cn1,IC50,second compound 0.0316 µM,39.3 nM
same,IC50,second compound 0.1 µM,< 31.6 nM
same,IC50,second compound 0.316 µM,< 31.6 nM
same,IC50,second compound 1 µM,< 31.6 nM
same,IC50,second compound 3.16 µM,< 31.6 nM
same,IC50,second compound 10 µM,< 31.6 nM
same,"viability, T/C",[1],57.3%
same,"viability, T/C",[2],30.7%
same,"viability, T/C",[3],35.5%
same,"viability, T/C",[4],23.1%
same,"viability, T/C",[5],15.1%
same,"viability, T/C",[6],7.07%
same,"viability, T/C",[7],30.4%
same,"viability, T/C",[8],31.3%
same,"viability, T/C",[9],22.9%
same,"viability, T/C",[10],24.6%
same,"viability, T/C",[11],15%
same,"viability, T/C",[12],6.35%
same,"viability, T/C",[13],22.4%
same,"viability, T/C",[14],27.7%
same,"viability, T/C",[15],23.2%
same,"viability, T/C",[16],21%
same,"viability, T/C",[17],11.9%
same,"viability, T/C",[18],7.02%
same,"viability, T/C",[19],18.7%
same,"viability, T/C",[20],21.1%
same,"viability, T/C",[21],18.8%
same,"viability, T/C",[22],22.5%
same,"viability, T/C",[23],12.2%
same,"viability, T/C",[24],5.25%
same,"viability, T/C",[25],19.6%
same,"viability, T/C",[26],22.5%
same,"viability, T/C",[27],19.5%
same,"viability, T/C",[28],15.9%
same,"viability, T/C",[29],9.99%
same,"viability, T/C",[30],5.08%
same,"viability, T/C",[31],0.08%
same,"viability, T/C",[32],0.12%
same,"viability, T/C",[33],0.15%
same,"viability, T/C",[34],0.11%
same,"viability, T/C",[35],0.15%
same,"viability, T/C",[36],0.14%
O=c1[nH]cc(F)c(=O)[nH]1 + Cc1[nH]c2ccc(F)cc2c1-c1nc2c3cccnc3c3ncccc3c2[nH]1,IC50,second compound 0.0316 µM,1590 nM
same,IC50,second compound 0.1 µM,1940 nM
same,IC50,second compound 0.316 µM,1990 nM
same,IC50,second compound 1 µM,1880 nM
same,IC50,second compound 3.16 µM,684 nM
same,IC50,second compound 10 µM,234 nM
same,"viability, T/C",[1],113%
same,"viability, T/C",[2],92.3%
same,"viability, T/C",[3],106%
same,"viability, T/C",[4],58.9%
same,"viability, T/C",[5],42.2%
same,"viability, T/C",[6],31.4%
same,"viability, T/C",[7],86.8%
same,"viability, T/C",[8],101%
same,"viability, T/C",[9],115%
same,"viability, T/C",[10],68.9%
same,"viability, T/C",[11],40.5%
same,"viability, T/C",[12],31.5%
same,"viability, T/C",[13],91.1%
same,"viability, T/C",[14],113%
same,"viability, T/C",[15],137%
same,"viability, T/C",[16],69.2%
same,"viability, T/C",[17],40.3%
same,"viability, T/C",[18],33.8%
same,"viability, T/C",[19],92.2%
same,"viability, T/C",[20],113%
same,"viability, T/C",[21],113%
same,"viability, T/C",[22],67.3%
same,"viability, T/C",[23],39.1%
same,"viability, T/C",[24],32.2%
same,"viability, T/C",[25],106%
same,"viability, T/C",[26],106%
same,"viability, T/C",[27],87.6%
same,"viability, T/C",[28],31.3%
same,"viability, T/C",[29],27.5%
same,"viability, T/C",[30],20.4%
same,"viability, T/C",[31],31.7%
same,"viability, T/C",[32],73.2%
same,"viability, T/C",[33],48.5%
same,"viability, T/C",[34],15.9%
same,"viability, T/C",[35],7.19%
same,"viability, T/C",[36],8.78%
CCCS(=O)(=O)Nc1ccc(F)c(C(=O)c2c[nH]c3ncc(-c4ccc(Cl)cc4)cc23)c1F + Cc1[nH]c2ccc(F)cc2c1-c1nc2c3cccnc3c3ncccc3c2[nH]1,IC50,second compound 0.0316 µM,5840 nM
same,IC50,second compound 0.1 µM,5380 nM
same,IC50,second compound 0.316 µM,5840 nM
same,IC50,second compound 1 µM,5480 nM
same,IC50,second compound 3.16 µM,67 nM
same,IC50,second compound 10 µM,54.9 nM
same,"viability, T/C",[1],107%
same,"viability, T/C",[2],106%
same,"viability, T/C",[3],102%
same,"viability, T/C",[4],107%
same,"viability, T/C",[5],85%
same,"viability, T/C",[6],19.3%
same,"viability, T/C",[7],117%
same,"viability, T/C",[8],107%
same,"viability, T/C",[9],111%
same,"viability, T/C",[10],95.4%
same,"viability, T/C",[11],74.1%
same,"viability, T/C",[12],22.6%
same,"viability, T/C",[13],102%
same,"viability, T/C",[14],113%
same,"viability, T/C",[15],106%
same,"viability, T/C",[16],92%
same,"viability, T/C",[17],84.9%
same,"viability, T/C",[18],21.6%
same,"viability, T/C",[19],117%
same,"viability, T/C",[20],106%
same,"viability, T/C",[21],119%
same,"viability, T/C",[22],101%
same,"viability, T/C",[23],80.8%
same,"viability, T/C",[24],16.9%
same,"viability, T/C",[25],60.6%
same,"viability, T/C",[26],40.4%
same,"viability, T/C",[27],38%
same,"viability, T/C",[28],23.6%
same,"viability, T/C",[29],21.1%
same,"viability, T/C",[30],10.1%
same,"viability, T/C",[31],67.5%
same,"viability, T/C",[32],30.9%
same,"viability, T/C",[33],12%
same,"viability, T/C",[34],5.4%
same,"viability, T/C",[35],4.9%
same,"viability, T/C",[36],5.95%

# Reference: PubChem BioAssay AID2060503 (Molecular Pharmacology Branch, DTP, NCI, 2025)
